Experimental data as given in patent US20140057915A1, “KINASE INHIBITORS” (TOPIVERT PHARMA LIMITED, priority 2012, published 2014).

Tests used:
Syk = Syk (Homo sapiens, UniProt P43405); test: Syk enzyme inhibition (FRET); assay type: biochemical; conditions: Table 4a1
Description: (§1) The enzyme inhibitory activities of compounds disclosed herein are determined by FRET using synthetic peptides labelled with both donor and acceptor fluorophores (Z-LYTE, Invitrogen Ltd., Paisley, UK).
(§2) The relevant enzyme (3000 ng/mL or 2000 ng/mL respectively, 2.5 μL) is incubated with the test compound (either 4 μg/mL, 0.4 μg/mL, 0.04 μg/mL, or 0.004 μg/mL, 2.5 μL each) for 2 hr at RT. The FRET peptides (8 μM, 2.5 μL), and appropriate ATP solutions (2.5 μL, 800 μM for c-Src, and 60 μM ATP for Syk) are then added to the enzymes/compound mixtures and incubated for 1 hr. Development reagent (protease, 5 μL) is added for 1 hr prior to detection in a fluorescence microplate reader (Varioskan® Flash, ThermoFisher Scientific).
(§3) In all cases, the site-specific protease cleaves non-phosphorylated peptide only and eliminates the FRET signal. Phosphorylation levels of each reaction are calculated using the ratio of coumarin emission (donor) over fluorescein emission (acceptor), for which high ratios indicate high phosphorylation and low ratios indicate low phosphorylation levels.

[1] = system: TNFα release, d-U937 cells; test: LPS-induced TNFα release in d-U937 cells; assay type: cell-based; conditions: Homo sapiens, dU937; relative to 10 μg/mL BIRB796; Table 4c1; read-out: LPS Induced Release of Cytokine in d-U937 Cells, TNFα REC50
Description: (§4) (a) LPS-Induced TNFα/IL-8 Release in d-U937Cells
U937 cells, a human monocytic cell line, are differentiated into macrophage-type cells by incubation with PMA (100 ng/mL) for 48 to 72 hr. Cells are pre-incubated with final concentrations of test compound for 2 hr and are then stimulated with LPS (0.1 μg/mL; from E. Coli: 0111:B4, Sigma) for 4 hr. The supernatant is collected for determination of TNFα and IL-8 concentrations by sandwich ELISA (Duo-set, R&D systems). […] The relative 50% effective concentration (REC50) is determined from the resultant concentration-response curve. The inhibition of IL-8 production is calculated at each concentration of test compound by comparison with vehicle control.

d-U937 cells = test: Cell viability: MTT assay; assay type: cell-based, human; conditions: 1 μg/mL
Description: (l) The Effect of Test Compounds on Cell Viability: MTT Assay
Differentiated U937 cells are pre-incubated with each test compound (final concentration 1 μg/mL or 10 μg/mL in 200 μL media indicated below) under two protocols: the first for 4 hr in 5% FCS RPMI1640 media and the second in 10% FCS RPMI1640 media for 24 h. The supernatant is replaced with new media (200 μL) and MTT stock solution (10 μL, 5 mg/mL) is added to each well. After incubation for 1 hr the media are removed, DMSO (200 μL) is added to each well and the plates are shaken lightly for 1 hr prior to reading the absorbance at 550 nm. The percentage loss of cell viability is calculated for each well relative to vehicle (0.5% DMSO) treatment. Consequently an apparent increase in cell viability for drug treatment relative to vehicle is tabulated as a negative percentage.

[2] = system: ICAM-1 expression, BEAS2B cells; test: Poly I:C-induced ICAM-1 expression in BEAS2B cells; assay type: cell-based; conditions: Homo sapiens, BEAS-2B; read-out: Poly IC induced ICAM1 in BEAS2B, IC50
Description: (f) Poly I:C-Induced ICAM-1 Expression in BEAS2B Cells
Poly I:C is used in these studies as a simple, RNA virus mimic. Poly I:C-Oligofectamine mixture (1 μg/mL Poly I:C, ±2% Oligofectamine, 25 μL; Invivogen Ltd., San Diego, Calif., and Invitrogen, Carlsbad, Calif., respectively) is transfected into BEAS2B cells (human bronchial epithelial cells, ATCC). Cells are pre-incubated with final concentrations of test compounds for 2 hr and the level of ICAM1 expression on the cell surface is determined by cell-based ELISA. At a time point 18 hr after poly I:C transfection, cells are fixed with 4% formaldehyde in PBS (100 μL) and then endogenous peroxidase is quenched by the addition of washing buffer (100 μL, 0.05% Tween in PBS: PBS-Tween) containing 0.1% sodium azide and 1% hydrogen peroxide. Cells are washed with wash-buffer (3×200 μL). and after blocking the wells with 5% milk in PBS-Tween (100 μL) for 1 hr, the cells are incubated with anti-human ICAM-1 antibody (50 μL; Cell Signalling Technology, Danvers, Mass.) in 1% BSA PBS overnight at 4° C.
The cells are washed with PBS-Tween (3×200 μL) and incubated with the secondary antibody (100 μL; HRP-conjugated anti-rabbit IgG, Dako Ltd., Glostrup, Denmark). […] The ICAM-1 signal is detected by reading the absorbance at 450 nm against a reference wavelength of 655 nm using a spectrophotometer. The cells are then washed with PBS-Tween (3×200 μL) and total cell numbers in each well are determined by reading absorbance at 595 nm after Crystal Violet staining (50 μL of a 2% solution in PBS) and elution by 1% SDS solution (100 μL) in distilled water. The measured OD 450-655 readings are corrected for cell number by dividing with the OD595 reading in each well. The inhibition of ICAM-1 expression is calculated at each concentration of test compound by comparison with vehicle control.

cSrc = cSrc (Homo sapiens, UniProt P12931); test: c-Src enzyme inhibition (FRET); assay type: biochemical; conditions: Table 4a1
Chain of cSrc (P12931 whole entry): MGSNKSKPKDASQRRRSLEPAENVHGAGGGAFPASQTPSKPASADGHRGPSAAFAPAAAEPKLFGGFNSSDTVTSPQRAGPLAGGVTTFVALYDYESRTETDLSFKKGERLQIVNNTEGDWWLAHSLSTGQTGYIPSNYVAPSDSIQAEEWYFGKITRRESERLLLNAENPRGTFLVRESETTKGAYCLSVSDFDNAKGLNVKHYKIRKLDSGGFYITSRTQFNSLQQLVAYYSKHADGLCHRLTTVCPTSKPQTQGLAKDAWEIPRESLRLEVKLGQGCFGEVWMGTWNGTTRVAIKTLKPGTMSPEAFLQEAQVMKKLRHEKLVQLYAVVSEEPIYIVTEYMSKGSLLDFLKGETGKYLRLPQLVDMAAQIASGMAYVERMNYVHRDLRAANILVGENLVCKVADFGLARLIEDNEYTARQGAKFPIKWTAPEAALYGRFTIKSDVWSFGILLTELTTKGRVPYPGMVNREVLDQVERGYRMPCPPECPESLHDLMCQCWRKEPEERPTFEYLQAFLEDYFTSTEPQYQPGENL
Description: as §1, §2, §3

[3] = system: IL-8 release, d-U937 cells; test: LPS-induced IL-8 release in d-U937 cells; assay type: cell-based; conditions: Homo sapiens, dU937; Table 4c1; read-out: LPS Induced Release of Cytokine in d-U937 Cells, IL-8 IC50
Description: as §4
U937 cells, a human monocytic cell line, are differentiated into macrophage-type cells by incubation with PMA (100 ng/mL) for 48 to 72 hr. Cells are pre-incubated with final concentrations of test compound for 2 hr and are then stimulated with LPS (0.1 μg/mL; from E. Coli: 0111:B4, Sigma) for 4 hr. […] The relative 50% effective concentration (REC50) is determined from the resultant concentration-response curve.

GSK3α = GSK3α (Homo sapiens, UniProt P49840); test: GSK 3α enzyme inhibition (FRET), Method 1; assay type: biochemical; conditions: Table 4a1
Chain of GSK3α (P49840 whole entry): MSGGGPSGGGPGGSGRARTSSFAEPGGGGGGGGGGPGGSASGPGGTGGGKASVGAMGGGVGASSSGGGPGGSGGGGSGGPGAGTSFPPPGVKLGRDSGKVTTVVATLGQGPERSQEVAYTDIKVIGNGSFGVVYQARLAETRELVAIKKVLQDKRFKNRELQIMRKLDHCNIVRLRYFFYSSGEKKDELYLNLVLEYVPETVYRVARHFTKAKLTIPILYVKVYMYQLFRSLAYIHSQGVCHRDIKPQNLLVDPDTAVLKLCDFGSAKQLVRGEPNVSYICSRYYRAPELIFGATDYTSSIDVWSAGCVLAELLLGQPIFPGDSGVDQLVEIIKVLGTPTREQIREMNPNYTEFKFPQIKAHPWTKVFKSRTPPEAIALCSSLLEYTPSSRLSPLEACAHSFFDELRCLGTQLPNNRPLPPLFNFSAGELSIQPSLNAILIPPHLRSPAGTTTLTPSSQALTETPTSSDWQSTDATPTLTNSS
Description: as §1
The following two assay variants are used for determination of GSK 3a inhibition.
The inhibitory activities of compounds of the invention against the GSK 3a enzyme isoform (Invitrogen), are evaluated by determining the level of activation/phosphorylation of the target peptide. The GSK3-α protein (500 ng/mL, 2.5 μL) is mixed with the test compound (2.5 μL at either 4 μg/mL, 0.4 μg/mL, 0.04 μg/mL, or 0.004 μg/mL) for 2 hr at RT. The FRET peptide (8 μM, 2.5 μL), which is a phosphorylation target for GSK3α, and ATP (40 μM, 2.5 μL) are then added to the enzyme/compound mixture and the resulting mixture incubated for 1 hr. Development reagent (protease, 5 μL) is added for 1 hr prior to detection in a fluorescence microplate reader (Varioskan® Flash, ThermoFisher Scientific).
as §3

IC50 (Syk) [nM] | EC50 [1] [nM] | IC50 (cSrc) [nM] | IC50 [3] [nM] | IC50 (GSK3α) [nM] | SMILES | Cell viability at time point in d-U937 cells, 4 h (d-U937 cells) | Cell viability at time point in d-U937 cells, 24 h (d-U937 cells) | IC50 [2] [nM]
14 | 1.3 | 5 | 1.9 | 356 | COc1ccc(-n2nc(C(C)(C)C)cc2NC(=O)Nc2ccc(Oc3ccnc(Nc4cccc(C(=O)NCCN5CCOCC5)c4)n3)c3ccccc23)cc1 [Example 21, 3-((4-((4-(3-(3-(tert-butyl)-1-(4-methoxyphenyl)-1H-pyrazol-5-yl)ureido)naphthalen-1-yl)oxy)pyrimidin-2-yl)amino)-N-(2-morpholinoethyl)benzamide] | −ve (−ve and +ve indicate that the value is below and above respectively, the no significant effect threshold, defined as 30% inhibition at 1 μg/mL at the time point indicated) | −ve (−ve and +ve indicate that the value is below and above respectively, the no significant effect threshold, defined as 30% inhibition at 1 μg/mL at the time point indicated) | 0.8
292 | 4.5 | < 1 | 1.3 | 930 | Cc1ccc(-n2nc(C3(C)COC3)cc2NC(=O)Nc2ccc(Oc3ccnc(Nc4cccc(C(=O)NCCN5CCOCC5)c4)n3)c3ccccc23)cc1 [Example 22, 3-((4-((4-(3-(3-(3-methyloxetan-3-yl)-1-(p-tolyl)-1H-pyrazol-5-yl)ureido)naphthalen-1-yl)oxy)pyrimidin-2-yl)amino)-N-(2-morpholinoethyl)benzamide] | −ve (−ve and +ve indicate that the value is below and above respectively, the no significant effect threshold, defined as 30% inhibition at 1 μg/mL at the time point indicated) | −ve (−ve and +ve indicate that the value is below and above respectively, the no significant effect threshold, defined as 30% inhibition at 1 μg/mL at the time point indicated) | 4.1

The remaining lines, values behind:

SMILES | IC50 (Syk) [nM] | EC50 [1] [nM] | IC50 (cSrc) [nM] | IC50 [3] [nM] | IC50 (GSK3α) [nM] | Cell viability at time point in d-U937 cells, 4 h (d-U937 cells) | Cell viability at time point in d-U937 cells, 24 h (d-U937 cells) | IC50 [2] [nM]
COc1ccc(-n2nc(C(C)C)cc2NC(=O)Nc2ccc(Oc3ccnc(Nc4cc(OC)cc(C(=O)NCCN5CCOCC5)c4)c3)c3ccccc23)cc1 [Example 15, 3-((4-((4-(3-(3-isopropyl-1-(4-methoxyphenyl)-1H-pyrazol-5-yl)ureido)naphthalen-1-yl)oxy)pyridin-2-yl)amino)-5-methoxy-N-(2-morpholinoethyl)benzamide] | 16 | 0.4 | 4 | 1.6 | 3180 | −ve (−ve and +ve indicate that the value is below and above respectively, the no significant effect threshold, defined as 30% inhibition at 1 μg/mL at the time point indicated) | −ve (−ve and +ve indicate that the value is below and above respectively, the no significant effect threshold, defined as 30% inhibition at 1 μg/mL at the time point indicated) | 26.2
CNC(=O)c1cccc(Nc2nccc(Oc3ccc(NC(=O)Nc4cc(C(C)(C)C)nn4-c4ccc(C)cc4)c4ccccc34)n2)c1 [Example 16, 3-((4-((4-(3-(3-(tert-butyl)-1-(p-tolyl)-1H-pyrazol-5-yl)ureido)naphthalen-1-yl)oxy)pyrimidin-2-yl)amino)-N-methylbenzamide] | 1390 | 1.3 | 9 | 1.7 | 1400 | −ve (−ve and +ve indicate that the value is below and above respectively, the no significant effect threshold, defined as 30% inhibition at 1 μg/mL at the time point indicated) | −ve (−ve and +ve indicate that the value is below and above respectively, the no significant effect threshold, defined as 30% inhibition at 1 μg/mL at the time point indicated) | 1.9
CCCNC(=O)c1cccc(Nc2nccc(Oc3ccc(NC(=O)Nc4cc(C(C)(C)C)nn4-c4ccc(OC)cc4)c4ccccc34)n2)c1 [Example 17, 3-(4-(4-(3-(3-tert-butyl-1-(4-methoxyphenyl)-1H-pyrazol-5-yl)ureido)naphthalen-1-yloxy)pyrimidin-2-ylamino)-N-propylbenzamide] | 35 | 1.5 | 3 | 1.8 | 309 | −ve (−ve and +ve indicate that the value is below and above respectively, the no significant effect threshold, defined as 30% inhibition at 1 μg/mL at the time point indicated) | −ve (−ve and +ve indicate that the value is below and above respectively, the no significant effect threshold, defined as 30% inhibition at 1 μg/mL at the time point indicated) | 2.6
Cc1ccc(-n2nc(C(C)(C)C)cc2NC(=O)Nc2ccc(Oc3ccnc(Nc4cccc(C(=O)NCCN(C)C)c4)n3)c3ccccc23)cc1 [Example 18, 3-((4-((4-(3-(3-(tert-butyl)-1-(p-tolyl)-1H-pyrazol-5-yl)ureido)naphthalen-1-yl)oxy)pyrimidin-2-yl)amino)-N-(2-(dimethylamino)ethyl)benzamide] | > 1440 | 1.5 | 7 | 1.8 | 295 | −ve (−ve and +ve indicate that the value is below and above respectively, the no significant effect threshold, defined as 30% inhibition at 1 μg/mL at the time point indicated) | −ve (−ve and +ve indicate that the value is below and above respectively, the no significant effect threshold, defined as 30% inhibition at 1 μg/mL at the time point indicated) | 2.3
